# Tests used:
# Solubility in water = assay type: physicochemical; details: pure H2O
# [1] = Potentiometric pH titrations, Hyperquad model; details: for log(β): Hyperquad model, 100 mM KCl, 25° C.
# Description: (§2) The speciation in water was more rigorously probed with potentiometric pH titrations. […] The quinolic protons likely deprotonate at higher pH values (pKa˜10), but we were unable to obtain the high pH data necessary to confirm this.
# (§3) The data were fit to a model containing the protonated forms of the free ligand and four Mn(II) complexes with the ligand in various protonation states: [Mn(H2qtp2)], [Mn(H3qtp2)]^+, [Mn(H4qtp2)]^2+, and [Mn(H4qtp2)]^3+ (Scheme 4).
# [2] = conditions identical to those used for 3; cited from earlier work
# [3] = Competitive binding assay with TPEN for log(K) of ligand binding to Mn(II); assay type: physicochemical
# Description: The log(K) was measured via a competitive binding assay between N,N,N′,N′-tetrakis(2-pyridylmethyl)ethylenediamine (TPEN) and the ligand (L). Various amounts of TPEN were added to a solutions of the ligand in MeCN-d3 and D2O.
# The log(K) for the complexation of H2qtp1 to Mn(II) was estimated through a titration with the metal-scavenging agent TPEN (N,N,N′,N′-tetrakis(2-pyridinylmethyl)ethylenediamine, log K=10.3). The ratios of free TPEN to free ligand were assessed by ^1H NMR.
# Given the known log(K) of 10.3 for TPEN's binding to Mn(II), a log(K) of 10.7 was thereby assigned for the coordination of H2qtp1 to Mn(II). […] The log(K) of 10.7 is nearly identical to the 10.6 value estimated for a related ligand from our laboratory that contains a para-methylphenol group in place of the H2qtp1's quinol.
# [4] = T1-weighted relaxivity (r1) on 3 T clinical MRI scanner; assay type: physicochemical; details: no oxidant; 50 mM HEPES pH 7.00, 3 T, 25° C.
# Text: All MRI data were collected at the Auburn University MRI Research Center (Auburn, Ala.) on a Siemens Verio open-bore 3-T MRI clinical scanner. A 15-channel knee coil was used to simultaneously image 12-26 samples. An inversion recovery (IR) sequence was used that featured a non-selective adiabatic inversion pulse followed by a slice-selective gradient recalled echo (GRE) readout after a delay period corresponding to the inversion time (TI).^1-2 The GRE was a saturation readout, such that only one line of k-space was acquired per repetition time (TR). This method was selected to maximize both the signal strength and the accuracy of the T1 estimates. Specific imaging parameters were as follows: TR was set to 4 s, TI was varied from 4.8 to 2500 ms over 37 steps, the echo time (TE) was set to 3.6 ms, the flip angle equaled 90°, averages=1, slice thickness=5 mm, field of view=140×140 mm, matrix=128×128, resulting in a pixel size of 1.1×1.1×5.0 mm. All samples were run in 50 mM solutions of HEPES in water, buffered to pH 7.0 and kept at […]. The manganese content was systematically varied from 0.10 to 1.00 mM. The inverses of the T1 values were plotted versus the concentration of Mn(II) to obtain r1 values. All reported r1 values are averages from the results of two separate series of experiments. Each series of experiments used a different batch of 1.
# Image analysis was performed using custom Matlab programs (Mathworks, Natick, Mass.). The initial TI=4.8 ms image served as a baseline to determine circular region of interest (ROI) boundaries for each sample; from these, the mean pixel magnitudes for each ROI were calculated. For each of the 36 subsequent TI images, the same ROI boundaries were applied and the mean pixel magnitude calculations were repeated. This gave consistent ROI spatial definitions and a corresponding time course of magnitudes for each of the samples over all the TI time points. Each sample's complex phase was used to correct the magnitude polarity to produce a complete exponential T1 inversion recovery curve. The Nelder-Mead simplex algorithm^3 was applied to each sample's exponential curve to estimate its corresponding T1 value.
# (§1) For the relaxivity measurements, all samples were run in 298 K aqueous solutions containing 50 mM HEPES buffered to pH 7.00, using a 3 T field provided by a clinical MRI scanner. The data were fit to the indicated linear equations; the y-intercepts were within error of 1/T1 measurements associated with two control samples that contained no Mn(II): (A) 10 mM H2O2 in 50 mM HEPES buffer and (B) pure 50 mM HEPES buffer (both 0.46 s^−1).
# as §1, with “All” for “For the relaxivity measurements, all”, “s^−1). The oxidation of 1 by 2,3-dichloro-5,6-dicyano-1,4-benzoquinone (DDQ) occurred in CH2Cl2. After the reaction occurred, the 2,3-dichloro-5,6-dicyanoquinol product was removed via filtration, the CH2Cl2 was removed, and the sample was dissolve in HEPES buffer for MRI analysis. The other oxidation reactions occurred entirely in HEPES buffer.” for “s^−1).”
# The capability of 3 to serve as a MRI contrast agent was assessed with a 3 T clinical MRI scanner. All samples were run in 298 K aqueous solutions containing 50 mM HEPES buffered to pH 7.00, using a 3 T field provided by a clinical MRI scanner. All samples were prepared under air. The oxidized samples were prepared by directly adding H2O2 to solutions of 3 in aqueous solutions buffered to pH 7.0. The oxidation reactions were allowed to proceed for 30 min at 298 K before the T1 measurements were taken. […]
# [5] = Stability in aerobic solution / to pH; assay type: physicochemical; details: pH >10
# Description: Over this time, collected UV/vis spectra (FIGS. 2 & 3) display changes in the region between 200 nm and 300 nm which are consistent with the oxidation of the quinol to a para-quinone. Past 24 h, the solution begins to turn brown, consistent with oxidation of the manganese to Mn(III) and/or Mn(IV). For the spectrophotometric analysis, the Fe(ClO4)2 solution was added to a MeCN solution containing 0.10 mM [Mn(Hptp1)(MeCN)]^2+; the mixture was scanned at 0 min (dashed red), 30 min (dashed pink), and 60 min (dashed blue). […] At 15 h, approximately 11% of the Mn(II) has been displaced by Fe(II) as indicated by data in FIG. 3.
# The stability of 3 to air and adventitious metal ions was assessed primarily by UV/vis spectroscopy. […] Complex 3, however, is susceptible to metal exchange. When equimolar amounts of 3 and Fe(ClO4)2 are mixed in MeCN, 80% of the Mn(II) is replaced by Fe(II) by 3 h.
# Description for physchem: as §2, §3
compound,measurement,setting,value
"cis-Dibromo(N,N′-bis(2,5-benzoquinone)-N,N′-bis(2-pyridinylmethyl)-1,2-ethanediamine)manganese(II) [Complex 4]",solubility in water,Solubility in water,poor and poor solubility
Oc1ccc(O)c(CN(CCN(Cc2ccccn2)Cc2cc(O)ccc2O)Cc2ccccn2)c1 [H5qtp2^+],log(β),[1],7.18 (±0.03)
Oc1ccc(O)c(CN(CCN(Cc2ccccn2)Cc2cc(O)ccc2O)Cc2ccccn2)c1 [H6qtp2^2+],log(β),[1],11.65 (±0.05)
Oc1ccc2c(c1)CN(Cc1ccccn1)CCN(Cc1ccccn1)Cc1cc(O)ccc1[O][Mn][O]2 [[Mn(H2qtp2)]],log(β),[1],−7.19 (±0.01)
same,percent formation of Mn(II) species,[1]; pH 7.0,40.3%
same,percent formation of Mn(II) species,[1]; pH 7.4,66.2%
O.O.O.O.O.O.[Mn+2] [[Mn(H2O)6]^2+],"r1, previously found",[2],about 5.3 mM^−1s^−1
"Oc1ccc(O)c(CN(CCN(Cc2ccccn2)Cc2ccccn2)Cc2ccccn2)c1 [Complex H2qtp1, N-(2,5-Dihydroxybenzyl)-N,N′,N′-tris(2-pyridinylmethyl)-1,2-ethanediamine]",equilibrium constant for [Mn(L)(MeCN)]^2+ + TPEN → [Mn(TPEN)]^2+ + L,[3]; in both water and MeCN,0.4
same,log(K) for the coordination of ligand to Mn(II),"[3]; titration with TPEN, 1H NMR, water and MeCN",10.7
"O.O=C([O-])CN(CCN(CC(=O)[O-])CC(=O)[O-])CC(=O)[O-].[Mn+2] [[Mn(EDTA)(H2O)]^2−, reference compound]",r1 (T1-weighted relaxivity),[4],1.73 mM⁻¹ s⁻¹
"Oc1ccc(O)c(CN(CCN(Cc2ccccn2)Cc2cc(O)ccc2O)Cc2ccccn2)c1 [Complex H4qtp2, N,N′-Bis(2,5-dihydroxybenzyl)-N,N′-bis(2-pyridinylmethyl)-1,2-ethanediamine]",stability of ligand to pH,[5],degrades under basic conditions
same,pKa,physchem; pKL1 (free ligand pKa),4.47
same,pKa,physchem; pKL2 (free ligand pKa),7.18
same,log(β),[1],0.00

# From patent publication US10233205B2, “Magnetic resonance imaging contrast agent capable of detecting hydrogen peroxide and reducing reactive oxygen species” (Auburn University, priority 2015, dated 2019)
